Experiments:
BCRP = molecular target: T1, BCRP (Rattus norvegicus, UniProt Q80W57); experiment: Oral pharmacokinetics of topotecan (BCRP substrate) in rats with/without co-administered LW6 formulations; format: in vivo
T1 construct: from tissue; host or cells: living male Sprague-Dawley rats (intestine)
T1 sequence (Q80W57 1-657): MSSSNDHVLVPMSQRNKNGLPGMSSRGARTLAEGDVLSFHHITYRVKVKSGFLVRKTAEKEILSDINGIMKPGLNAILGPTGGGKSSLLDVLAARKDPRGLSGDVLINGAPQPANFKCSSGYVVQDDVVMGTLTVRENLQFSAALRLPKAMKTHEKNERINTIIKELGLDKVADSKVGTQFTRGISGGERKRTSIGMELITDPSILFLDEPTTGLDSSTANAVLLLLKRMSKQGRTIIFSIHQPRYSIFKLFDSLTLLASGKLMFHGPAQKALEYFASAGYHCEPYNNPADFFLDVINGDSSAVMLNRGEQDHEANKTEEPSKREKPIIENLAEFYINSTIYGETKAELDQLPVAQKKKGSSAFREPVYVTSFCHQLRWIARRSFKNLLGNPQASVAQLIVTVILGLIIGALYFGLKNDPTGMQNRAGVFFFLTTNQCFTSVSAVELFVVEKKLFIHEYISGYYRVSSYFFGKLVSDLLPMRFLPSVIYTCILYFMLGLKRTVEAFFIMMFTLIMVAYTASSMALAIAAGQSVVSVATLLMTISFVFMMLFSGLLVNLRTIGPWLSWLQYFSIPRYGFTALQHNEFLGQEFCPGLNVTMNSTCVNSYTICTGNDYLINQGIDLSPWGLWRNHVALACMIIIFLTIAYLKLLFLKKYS
Protocol: The pharmacokinetic profiles of topotecan, which is a representative BCRP substrate, were examined in rats with/without the co-administration of LW6 in different formulations. Animal studies were carried out in accordance with the “Guiding Principles in the Use of Animals in Toxicology” adopted by the Society of Toxicology (USA), and the study protocol was approved by the review committee of Dongguk University (IACUC-2017-016-2). Male Sprague–Dawley rats (260–280 g) were provided by Orient bio Co., Ltd. (Seongnam, Korea). All the rats were given free access to tap water and a normal standard chow diet (Superfeed Company, Wonju, Korea). The rats were fasted for 18 h before the experiments, and divided into three groups (n = 3 per group). The pure drug or SD (equivalent to 20 mg/kg of LW6) was suspended in 0.5% aqueous methylcellulose with 5% polyethylene glycol (PEG) and topotecan (10 mg/kg) was dissolved in saline. Each formulation was given orally to the three groups of rats (group 1, topotecan only; group 2, topotecan + pure LW6; group 3, topotecan + SD of LW6). Blood samples were obtained from the femoral artery at the predetermined time points. The blood samples were centrifuged at 13,000 rpm for 5 min, and the obtained plasma samples were frozen at −20 °C until analyzed by liquid chromatography-tandem mass spectrometry (LC-MS/MS).
LC-MS/MS assay for topotecan: The concentration of topotecan in rat plasma was determined using LC-MS/MS assay as reported by Ye et al.. Briefly, 100 µL of plasma, 20 µL of the internal standard camptothecin (1 µg/mL), and 180 µL of methanol were mixed vigorously, and then centrifuged at 13,000 rpm for 5 min. After centrifugation, 240 µL of the supernatant was collected and dried under vacuum. After complete drying, the residue was re-dispersed in methanol and analyzed by LC-MS/MS. Chromatographic separation was done with a C18 column (4.6 × 100 mm, 2.6 μm; Phenomenex, Torrance, CA, USA) using a mobile phase consisting of acetonitrile and 0.1% formic acid (80:20, v/v) at a flow rate of 0.4 mL/min. Mass spectrometric detection was done using the AB Sciex API 4000 triple quadrupole mass spectrometer (AB Sciex, Framingham, MA, USA). The electrospray ionization (ESI) source was set in positive ionization mode. The precursor/product ion pair (m/z) was 422.2/377.1 for topotecan and 349.1/305.2 for camptothecin (IS). The calibration curve was prepared at concentrations of 1 to 1000 ng/mL with a good linearity of r^2 value greater than 0.99.
Based on the noncompartmental analysis, the area under the plasma concentration–time curve (AUC) was calculated using the linear trapezoidal method. The peak plasma concentration (Cmax) and the time to reach the peak plasma concentration (Tmax) were values recorded from the experimental data.

[1] = In vitro drug release (dissolution) studies; format: physicochemical; conditions: 37 °C, 100 rpm
Protocol: The drug release profiles of each formulation were examined at different pH conditions (1.2, 4.0, and 6.8). Each formulation (drug amount equivalent to 1 mg of LW6) was dispersed in different release media (10 mL) and stirred at 100 rpm, 37 °C. At predetermined time points (10, 20, 30, 45, and 60 min), the samples were collected and filtered through a 0.45-µm pore-sized cellulose syringe filters. The drug concentration in each filtrate was determined by HPLC assay.
HPLC assay for LW6: The concentrations of LW6 from in vitro samples were determined using a HPLC system (Perkin Elmer series 200, Waltham, MA, USA) consisting of a UV detector, a pump, and an automatic injector. A reversed-phase C18 column (Gemini C18, 4.6 × 150 mm, 5 µm; Phenomenex, Torrance, CA, USA) was eluted with a mobile phase consisting of acetonitrile and 0.1% formic acid (80:20, v/v). The flow rate was 1.0 mL/min at 30 °C, and the UV wavelength was set at 254 nm. Valsartan was used as an internal standard, and the calibration curve of LW6 was linear (r^2 = 0.99) within the concentration range of 0.05 to 100 µg/mL.

[2] = test system: breast cancer resistance protein (BCRP); design: method as in PMID 27520631; conditions: previous reports ref 4; cited from earlier work
[3] = Apparent aqueous solubility of LW6 formulations (HPLC); format: physicochemical; conditions: water
Protocol: For the selection of optimal carriers, SDs of LW6 were prepared with various hydrophilic polymers at a drug–carrier ratio of 1:5 using the solvent evaporation method. Briefly, LW6 was dissolved in dichloromethane by sonication for 10 min for complete solubilization. Each polymeric carrier was dissolved in dichloromethane and added to the drug solution. After vigorous mixing, all the solvents were eliminated under vacuum at room temperature. The resulting product was milled and sieved through an 80-mesh screen. The corresponding physical mixtures (PMs) were also prepared by mixing LW6 and each carrier with a mortar and pestle. The carrier that enhanced the LW6 solubility to the greatest extent was selected for preparing the ternary SD formulations of LW6. The effect of surfactants on the solubility of LW6 was also determined using a 10% aqueous solution of various surfactants.
Each formulation equivalent to 1 mg of LW6 was dissolved in 1 mL of distilled water and stirred at 300 rpm for 48 h at room temperature. […] The drug concentration in each filtrate was measured by HPLC assay.
HPLC assay for LW6: The concentrations of LW6 from in vitro samples were determined using a HPLC system (Perkin Elmer series 200, Waltham, MA, USA) consisting of a UV detector, a pump, and an automatic injector. […]

[4] = male, Sprague-Dawley, rat, plasma, oral topotecan 10 mg/kg, with or without LW6 20 mg/kg (pure or F8-SD), mean ± SD (n = 3)

| SMILES | Increase in oral (systemic) exposure of topotecan by coadministration (BCRP; oral topotecan 10 mg/kg + LW6 20 mg/kg equivalent, versus topotecan only) | Drug release within 20 min ([1]; acidic to neutral pH range (pH 1.2, 4.0, 6.8)) | Drug release within 1 h ([1]; water) | BCRP inhibitory potency compared with typical BCRP inhibitor [2] | Aqueous solubility of pure LW6 (in words) [3] | AUC (BCRP; [4]) | Cmax (BCRP; [4]) | Tmax (BCRP; [4]) | half-life (BCRP; male, Sprague-Dawley, rat, plasma, oral topotecan 10 mg/kg, with or without LW6 20 mg/kg (pure or F8-SD), mean ± SD (n = 3), read-out: T1/2 of topotecan (converted)) |
| --- | --- | --- | --- | --- | --- | --- | --- | --- | --- |
| COC(=O)c1ccc(O)c(NC(=O)COc2ccc(C34CC5CC(CC(C5)C3)C4)cc2)c1 [LW6, 3-[2-(4-adamantan-1-yl-phenoxy)-acetylamino]-4-hydroxy-benzoic acid methyl ester] | approximately threefold | negligible | minimal | more potent than Kol43 | practically insoluble | – | – | – | – |
| CC[C@@]1(O)C(=O)OCc2c1cc1n(c2=O)Cc2cc3c(CN(C)C)c(O)ccc3nc2-1 [Topotecan, topotecan] | – | – | – | – | – | 204 ± 11.1 ng·h/mL | 31.3 ± 7.1 ng/mL | 0.4 ± 0.1 h | 2 ± 0.4 h |
